Test: xn = mol fraction of the nth substance listed

CCOP(=O)([O-])OCC.CC[N+]1(C)CCOCC1 + CCO
viscosity [mPa·s], 100 kPa
Details | 293.15 K | 298.15 K | 303.15 K | 308.15 K | 313.15 K | 318.15 K | 323.15 K | 328.15 K | 333.15 K | 338.15 K
x1 = 0.0996 | 4.62 | 4.1 | 3.75 | 3.43 | 3.13 | 2.91 | 2.76 | 2.58 | 2.4 | 2.24
x1 = 0.2018 | 12.84 | 11.11 | 9.79 | 8.75 | 7.93 | 7.21 | 6.69 | 6.18 | 5.76 | 5.54
x1 = 0.3003 | 36.7 | 29.6 | 24.7 | 20.8 | 18.1 | 15.82 | 14.33 | 13.01 | 11.79 | 10.78
x1 = 0.4018 | 97.7 | 75.1 | 59 | 47.6 | 38.2 | 31.8 | 27.3 | 23.5 | 21.1 | 18.7
x1 = 0.4998 | 257 | 183 | 136.7 | 102.9 | 78.9 | 61.3 | 49.2 | 40.1 | 33.3 | 29
x1 = 0.6009 | 625 | 419 | 291 | 209 | 155 | 116.8 | 90 | 68.9 | 54.9 | 44.7
x1 = 0.7005 | 1447 | 938 | 631 | 424 | 298 | 213 | 158 | 120.4 | 91.7 | 72
x1 = 0.7996 | 3386 | 2221 | 1448 | 895 | 582 | 409 | 282 | 205 | 155 | 114.1
x1 = 0.901 | 6136 | 3670 | 2214 | 1372 | 909 | 604 | 418 | 297 | 215 | 160
x1 = 1 | 12100 | 6680 | 3786 | 2325 | 1466 | 942 | 634 | 443 | 312 | 226

[Cl-].[Cl-].[Co+2] + CCCCCCCC[N+](CCCCCCCC)(CCCCCCCC)CCCCCCCC.[Br-] + CCCCC/C=C\C/C=C\CCCCCCCC(=O)O
296.1 K, 101.3 kPa
Details | viscosity [mPa·s]
x2 = 0.4, x1 = 0.2 | 9700
x2 = 0.4286, x1 = 0.1429 | 2780

CCCCCCCCn1cc[n+](C)c1.F[B-](F)(F)F + CCCCOC(C)=O
298.15 K, 101 kPa
Details | viscosity [mPa·s]
x2 = 0.114 | 187
x2 = 0.4512 | 34.1
x2 = 0.9065 | 1.76

O=Cc1ccco1 + CCCC[P+](C)(CCCC)CCCC.COS(=O)(=O)[O-]
100 kPa
Details | viscosity [mPa·s]
293.15 K, x2 = 0.1 | 9
293.15 K, x2 = 0.191 | 41
293.15 K, x2 = 0.624 | 270
298.15 K, x2 = 0.062 | 2.33
298.15 K, x2 = 0.1 | 3.5
303.15 K, x2 = 0.191 | 6.7
303.15 K, x2 = 0.732 | 182
308.15 K, x2 = 0.142 | 4
308.15 K, x2 = 0.317 | 12.6
308.15 K, x2 = 0.624 | 58
313.15 K, x2 = 0 | 1.17
313.15 K, x2 = 0.1 | 2.6
318.15 K, x2 = 0.062 | 1.64
318.15 K, x2 = 0.142 | 3.5
318.15 K, x2 = 0.249 | 5.7
318.15 K, x2 = 0.499 | 20.5
323.15 K, x2 = 0.191 | 4
323.15 K, x2 = 0.249 | 4.7

CCCCCCCCn1cc[n+](C)c1.F[B-](F)(F)F + COC(C)=O
298.15 K, 101 kPa
Details | viscosity [mPa·s]
x2 = 0.199 | 100
x2 = 0.5512 | 13.82
x2 = 0.801 | 2.29
x2 = 0.9515 | 0.63

O=S(=O)([N-]S(=O)(=O)C(F)(F)F)C(F)(F)F.[Na+] + O=S(=O)([N-]S(=O)(=O)C(F)(F)F)C(F)(F)F.[Li+]
100 kPa, frequency 1 MHz, x2 = 0.67
Details | electrical conductivity [S/m]
473.6 K | 0.114
483.1 K | 0.156
492.1 K | 0.205
502.4 K | 0.269
512.5 K | 0.342
523.2 K | 0.435
531.5 K | 0.533
543.3 K | 0.635
552 K | 0.753
561.2 K | 0.91
571 K | 1.02

100 kPa, x2 = 0.67
Details | viscosity [mPa·s]
473.9 K | 411
483.1 K | 267
492.6 K | 203
502.5 K | 146
512.8 K | 106
523.6 K | 78.1
531.9 K | 60.7
543.5 K | 46.8
552.5 K | 36.2
561.8 K | 29.1

CCCC[n+]1ccn(C)c1.[Cl-] + CCCC[n+]1ccn(C)c1.F[B-](F)(F)F
Details | viscosity [mPa·s]
293 K, 101 kPa, x1 = 0.1015 | 201

CCCCCCCCn1cc[n+](C)c1.F[B-](F)(F)F + CC1COC(=O)O1
Details | viscosity [mPa·s]
303.15 K, 99.7 kPa, x2 = 0.4086 | 38.9

CCCC[n+]1ccn(C)c1.COP(=O)([O-])OC + CCCCC(=O)[O-].CC[NH+](CC)CCO
101 kPa, x2 = 0
Details | viscosity [mPa·s]
303.15 K | 426
323.15 K | 129.4
328.15 K | 100.9
348.15 K | 43.18
358.15 K | 30.38
368.15 K | 22.22
373.15 K | 19.25

F[P-](F)(F)(F)(F)F.[Li+] + CC[n+]1ccn(C)c1.O=S(=O)([O-])C(F)(F)F
electrical conductivity [S/m], 101 kPa
Details | x1 = 0.007746 | x1 = 0.01537 | x2 = 0.9673 | x2 = 0.9746
288.15 K | 0.614 | 0.559 | – | 0.532
298.15 K | 0.898 | 0.816 | 0.786 | 0.785
333.15 K | 2.3 | 2.08 | 2.08 | 2.02

CC[N+](CC)(CC)CC.O=[N+]([O-])[O-] + CC[NH3+].O=[N+]([O-])[O-]
101 kPa, frequency 0.00293 MHz
Details | electrical conductivity [S/m]
293.15 K, x1 = 0.15 | 1.01
303.15 K, x1 = 0.0501 | 2.13
303.15 K, x1 = 0.15 | 1.42
303.15 K, x1 = 0.35 | 0.565
308.15 K, x1 = 0.2001 | 1.34
313.15 K, x1 = 0.1 | 2.33
318.15 K, x1 = 0.2995 | 1.04
323.15 K, x1 = 0.15 | 2.46

101 kPa
Details | viscosity [mPa·s]
293.15 K, x1 = 0.15 | 74.1
303.15 K, x1 = 0.0501 | 35.5
303.15 K, x1 = 0.15 | 50
303.15 K, x1 = 0.35 | 131
308.15 K, x1 = 0.2001 | 50.4
313.15 K, x1 = 0.1 | 30.3
318.15 K, x1 = 0.2995 | 50.9
323.15 K, x1 = 0.15 | 26.2
328.15 K, x1 = 0.2001 | 26.6
328.15 K, x1 = 0.2567 | 32.4
328.15 K, x1 = 0.35 | 48.3
333.15 K, x1 = 0.15 | 20.1
343.15 K, x1 = 0.15 | 15.7
348.15 K, x1 = 0.2001 | 16
348.15 K, x1 = 0.35 | 26.3
353.15 K, x1 = 0.1 | 11
353.15 K, x1 = 0.35 | 23.4

CC(C)O + CC[n+]1ccn(CCOC)c1.O=S(=O)([O-])C(F)(F)F
101 kPa, x2 = 0
Details | viscosity [mPa·s]
288.15 K | 2.806
293.15 K | 2.397
298.15 K | 2.059
303.15 K | 1.777
308.15 K | 1.542
313.15 K | 1.344
318.15 K | 1.176

From the CheMixHub ionic liquid set
